Values quoted from earlier work in patent US6503927B1, “Amorphous paroxetine composition” (Pentech Pharmaceuticals, Inc., priority 1999, dated 2003).
Structures can show the parent of a compound that is named as a salt.

Settings: reported in U.S. Pat. No. 4,721,723 (Barnes et al.) and U.S. Pat. No. 5,672,612 (Ronsen et al.)

SMILES: Fc1ccc([C@@H]2CCNC[C@H]2COc2ccc3c(c2)OCO3)cc1 [amorphous, paroxetine hydrochloride, paroxetine hydrochloride]
- hygroscopicity of the solid: undesirably hygroscopic
